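48-hour exposure; five concentrations; linearly interpolated endpoints. GI50 = concentration required for 50% inhibition of growth.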 Calls of active or inactive are those of the source. Cut-off read from the data, not from the text of the source: active = GI50 up to about 1.1 µM and inactive = higher.
How the values were obtained:
Test in all cases: NCI tumour cell line growth inhibition, 48 h
[1] = test system: BT-549
[2] = test system: CCRF-CEM
[3] = test system: DU-145
[4] = test system: HCT-116
[5] = test system: HL-60
[6] = test system: HOP-92
[7] = test system: HT-29
[8] = test system: M14
[9] = test system: MCF7
[10] = test system: NCI-H23
[11] = test system: NCI-H460
[12] = test system: NCI/ADR-RES
[13] = test system: OVCAR-5
[14] = test system: RXF 393
[15] = test system: SF-268
[16] = test system: SN12C
[17] = test system: T47D
[18] = test system: U-251
[19] = test system: A498
[20] = test system: Hs-578T

| SMILES | GI50 [1] | GI50 [2] | GI50 [3] | GI50 [4] | GI50 [5] | GI50 [6] | GI50 [7] | GI50 [8] | GI50 [9] | GI50 [10] | GI50 [11] | GI50 [12] | GI50 [13] | GI50 [14] | GI50 [15] | GI50 [16] | GI50 [17] | GI50 [18] | GI50 [19] | GI50 [20] |
| --- | --- | --- | --- | --- | --- | --- | --- | --- | --- | --- | --- | --- | --- | --- | --- | --- | --- | --- | --- | --- |
| O=C(O)C1CCCCN1C(=O)Cc1c[nH]c2ccccc12 (centres undefined) | > 100 µM (inactive) | > 100 µM (inactive) | > 100 µM (inactive) | > 100 µM (inactive) | > 100 µM (inactive) | > 100 µM (inactive) | > 100 µM (inactive) | > 100 µM (inactive) | > 100 µM (inactive) | > 100 µM (inactive) | > 100 µM (inactive) | > 100 µM (inactive) | > 100 µM (inactive) | > 100 µM (inactive) | > 100 µM (inactive) | > 100 µM (inactive) | > 100 µM (inactive) | > 100 µM (inactive) | – | – |
| CCOC(=O)C(CCCNC(=O)OC(C)(C)C)N(Cc1ccc(OC)cc1OC)C(=O)CC(=O)CP(=O)(OCC)OCC (centres undefined) | – | > 100 µM (inactive) | – | > 100 µM (inactive) | 97.7 µM (inactive) | 16.2 µM (inactive) | > 100 µM (inactive) | > 100 µM (inactive) | – | > 100 µM (inactive) | > 100 µM (inactive) | – | > 100 µM (inactive) | > 100 µM (inactive) | > 100 µM (inactive) | > 100 µM (inactive) | – | > 100 µM (inactive) | > 100 µM (inactive) | – |
| Cc1[nH]c2c(C)cccc2c1C1Cc2ccccc2N1 (centres undefined) | – | 25.5 µM (inactive) | – | 17 µM (inactive) | 19.8 µM (inactive) | 0.0214 µM (active) | 19.5 µM (inactive) | 15.5 µM (inactive) | – | 20.3 µM (inactive) | 25.1 µM (inactive) | – | 21.2 µM (inactive) | 10.7 µM (inactive) | 20.5 µM (inactive) | 21.2 µM (inactive) | – | 20 µM (inactive) | 28.6 µM (inactive) | – |
| COc1cccc(-n2c(N)c(-c3nc4cc(C(F)(F)F)ccc4s3)c3ccc([N+](=O)[O-])cc3c2=O)c1 | > 100 µM (inactive) | – | > 100 µM (inactive) | > 100 µM (inactive) | – | > 100 µM (inactive) | > 100 µM (inactive) | > 100 µM (inactive) | > 100 µM (inactive) | > 100 µM (inactive) | > 100 µM (inactive) | > 100 µM (inactive) | > 100 µM (inactive) | – | > 100 µM (inactive) | > 100 µM (inactive) | > 100 µM (inactive) | > 100 µM (inactive) | > 100 µM (inactive) | – |
| O=C(NCCN1CCCCC1)c1cccc(I)c1 | > 100 µM (inactive) | > 100 µM (inactive) | – | – | > 100 µM (inactive) | 94.2 µM (inactive) | 49.7 µM (inactive) | 72.9 µM (inactive) | > 100 µM (inactive) | > 100 µM (inactive) | > 100 µM (inactive) | > 100 µM (inactive) | > 100 µM (inactive) | > 100 µM (inactive) | > 100 µM (inactive) | > 100 µM (inactive) | – | > 100 µM (inactive) | > 100 µM (inactive) | > 100 µM (inactive) |
| COc1ccc(NC(=O)c2oc3cc(O)ccc3c(=O)c2C)c([N+](=O)[O-])c1 | – | > 100 µM (inactive) | – | > 100 µM (inactive) | > 100 µM (inactive) | > 100 µM (inactive) | > 100 µM (inactive) | > 100 µM (inactive) | – | > 100 µM (inactive) | > 100 µM (inactive) | – | > 100 µM (inactive) | > 100 µM (inactive) | > 100 µM (inactive) | > 100 µM (inactive) | – | > 100 µM (inactive) | > 100 µM (inactive) | – |
| Cc1c(CC/C(=N\Nc2ccc([N+](=O)[O-])cc2[N+](=O)[O-])c2ccccc2)c2ccccc2n1C | – | > 44 µM (inactive) | – | > 100 µM (inactive) | > 50 µM (inactive) | 97.7 µM (inactive) | > 100 µM (inactive) | > 100 µM (inactive) | – | > 100 µM (inactive) | > 100 µM (inactive) | – | > 100 µM (inactive) | > 46.1 µM (inactive) | > 100 µM (inactive) | > 100 µM (inactive) | – | > 100 µM (inactive) | > 100 µM (inactive) | – |
| CCCCCCCCCCCCCC(=O)NCC(OCC)OCC | – | > 100 µM (inactive) | – | > 100 µM (inactive) | > 100 µM (inactive) | > 100 µM (inactive) | > 100 µM (inactive) | > 100 µM (inactive) | – | > 100 µM (inactive) | > 100 µM (inactive) | – | > 100 µM (inactive) | > 100 µM (inactive) | > 100 µM (inactive) | > 100 µM (inactive) | – | > 100 µM (inactive) | > 100 µM (inactive) | – |
| N#CC(C(=N/NC(N)=S)/C(=N\NC(N)=S)C(C#N)c1ccccc1)c1ccccc1 (centres undefined) | – | > 10 µM (inactive) | – | > 10 µM (inactive) | > 10 µM (inactive) | > 10 µM (inactive) | > 10 µM (inactive) | > 10 µM (inactive) | – | > 10 µM (inactive) | > 10 µM (inactive) | – | > 10 µM (inactive) | > 10 µM (inactive) | > 10 µM (inactive) | > 10 µM (inactive) | – | > 10 µM (inactive) | > 10 µM (inactive) | – |
| O=C1Nc2ccccc2Cn2c1cc1oc(-c3ccccc3)cc12 | – | > 100 µM (inactive) | 17.3 µM (inactive) | – | > 100 µM (inactive) | 31.3 µM (inactive) | > 100 µM (inactive) | – | 10.8 µM (inactive) | 86.9 µM (inactive) | 61.7 µM (inactive) | 45.5 µM (inactive) | 62.4 µM (inactive) | 21.4 µM (inactive) | 24 µM (inactive) | 27.4 µM (inactive) | 23.8 µM (inactive) | 16 µM (inactive) | 36.5 µM (inactive) | 10.9 µM (inactive) |
| CCOC(=O)CNC(SC)=C(C#N)C#N | – | > 100 µM (inactive) | – | > 100 µM (inactive) | > 100 µM (inactive) | > 100 µM (inactive) | > 100 µM (inactive) | > 100 µM (inactive) | – | > 100 µM (inactive) | > 100 µM (inactive) | – | > 100 µM (inactive) | > 100 µM (inactive) | > 100 µM (inactive) | > 100 µM (inactive) | – | > 100 µM (inactive) | > 100 µM (inactive) | – |
| O=C(CCc1nnc2s/c(=C\c3ccc(Cl)cc3Cl)c(=O)n12)Nc1cc(Cl)c(Cl)cc1Cl | – | > 10 µM (inactive) | – | > 10 µM (inactive) | > 100 µM (inactive) | 24 µM (inactive) | > 10 µM (inactive) | > 10 µM (inactive) | – | > 10 µM (inactive) | > 10 µM (inactive) | – | > 10 µM (inactive) | > 10 µM (inactive) | > 10 µM (inactive) | > 10 µM (inactive) | – | 72.4 µM (inactive) | > 10 µM (inactive) | – |
| CSc1ccc2c(cc1=O)[C@@H](NC(=O)c1ccc(F)cc1)CCc1cc(O)c(O)c(O)c1-2 | – | 56 µM (inactive) | – | > 100 µM (inactive) | > 100 µM (inactive) | 84.9 µM (inactive) | > 100 µM (inactive) | > 100 µM (inactive) | – | > 100 µM (inactive) | > 100 µM (inactive) | – | > 100 µM (inactive) | > 100 µM (inactive) | > 100 µM (inactive) | > 100 µM (inactive) | – | > 100 µM (inactive) | > 100 µM (inactive) | – |
